Reference: publication PMC3904085 (Frontiers in Neuroscience, 2014)
“Also recorded” adds a separate entry of the source. Like-named read-outs stand apart in the source and are kept apart here.

How the values were obtained:
[1] = test system: c-Fos protein in rat medial prefrontal cortex; assay: Restraint-stress-induced c-Fos activation (ELISA); details: 30 mg/kg
Procedure: Thirty min later, rats were restrained in a rigid plastic flat-bottom restraint tube (Braintree Scientific, Inc.; Braintree, MA, USA) for 20 min. After the 20 min stress period, rats were moved to a new cage and housed individually. Rats were sacrificed 2 h after stress onset. […] Immediately after sacrifice, brains were removed, the medial prefrontal cortex (mPFC), a brain area implicated in the pathophysiology of depression, was dissected from both hemispheres and frozen in 1.5 ml centrifuge tubes in dry ice, and stored at −80°C for later analysis.
Frozen mPFC tissues were removed from the −80°C freezer and placed on ice. Tissue was homogenized with a dounce homogenizer. The nuclear extract was prepared from the homogenized samples as per manufacturer's instructions using a CHEMICON ®Nuclear Extraction Kit (Millipore; Billerica, MA, USA). Protein concentrations were determined in the nuclear extracts using the Pierce BCA Protein Assay kit (Pierce Biotechnology, Inc., Rockford, IL, USA). Nuclear fractions were then assayed for Fos protein levels using the Pierce c-Fos Transcription Factor Kit (Pierce Biotechnology, Inc., Rockford, IL, USA), according to the manufacturer's instructions. […] Data were analyzed and plotted using GraphPad Prism (GraphPad Software, Inc.; La Jolla, CA, USA).

[2] = Rat exposure (plasma and brain pharmacokinetics); type: in vivo, Sprague–Dawley rats; details: for concentration at 2 h / Cmax / Tmax / AUC(0-t): male, Sprague-Dawley; for AUC(0-t): read-out: AUC0–6 h
Procedure: Two cohorts of rats were used in each study, with samples taken from one cohort at 0.5, 1, and 2 h post-dose, and samples taken from the second cohort at 1.5, 4, and 6 h post-dose. The first cohort of animals was sacrificed at 2 h post-dose, and the second at 6 h post-dose to allow for collection of brain samples.

[3] = Plasma and brain binding by equilibrium dialysis (unbound fraction); type: in vitro ADME; details: rat, equilibrium dialysis at 1 μM
[4] = set-up: method as in earlier work; details: ref Fitch et al., unpublished results; Anderson et al., under review; cited from earlier work
Sprague–Dawley rats = assay: DRL 72-s schedule of reinforcement in rats; type: in vivo, rat; details: for Lever Presses Mean / Reinforcers Mean: HSD rats DRL-72-s, raw data
From the text: Each chamber was enclosed in a melamine sound-attenuating cubicle. A white noise generator provided masking noise. The interior of each chamber consisted of three levers mounted on one wall with a house light mounted on the opposite wall. The house light was turned on at initiation of each test session and was turned off at the termination of each session. A water access port was situated next to the lever in the middle of the wall, wherein a reinforced response caused a clicker apparatus to sound paired with a dipper (0.02-ml cup) to be lifted from a water trough to an opening in the floor of the access port for 4 s.
Rats were initially trained under an alternative fixed ratio 1 water reinforcement schedule with a fixed 1-min time schedule for automatic reinforcement. Thus, each response was reinforced, with water also provided every minute in the absence of a response. […] Following acquisition of lever-pressing behavior, rats were trained daily on DRL 18-s sessions for ~2 weeks, following which they were advanced to DRL 72-s sessions. Responding on these sessions became stable after ~8 weeks. Experimental test sessions lasted for 1 h and were conducted 5 days/week during light hours.
(§1) Drugs were administered to the animals once or twice weekly with at least 1 week between subsequent drugs to minimize possible carryover effects. Drug treatments were administered on Tuesdays and Fridays. No treatments were administered on other test days. Wednesdays were control days. “Control” behavior was calculated as the pooled mean lever presses or reinforcers received during Wednesday sessions across all Wednesdays for the duration of each study. Performance was normalized to percent of control by dividing total responses (or reinforcers) for each drug or vehicle treatment by the mean number of responses (reinforcers) in the respective pooled control condition, multiplied by 100.
(§2) The data analyses were conducted on the raw response and reinforcement data. All behavioral data are expressed as the mean ± s.e.m. normalized to the control condition.

[5] = test system: mice lacking OX1 receptors; assay: DRL 36-s schedule of reinforcement in OX1 KO mice; type: in vivo, mouse; details: for Lever Presses Mean / Reinforcers Mean: OX1 KO mice DRL-36-s, raw data
From the text: (§3) Rats were acclimated to housing conditions for 4 days, followed by sham dosing once daily for 3 days, prior to the experiment. For DRL experiments, male Sprague–Dawley rats weighing between 300 and 350 g at the beginning of the behavioral experiments (Holtzman, Madison, WI) were housed in pairs. For mouse DRL studies, male C57Bl/6 mice (Taconic Farms, Hudson, NY) or mice lacking either OX1 or OX2 receptors, around 8 weeks of age, were obtained from private breeding colonies at Taconic Farms (Hudson, NY). OX1 and OX2 receptor knockout mice were generated using in vitro fertilization of embryos in C57Bl/6 female mice with sperm harvested from male mice obtained from the University of Texas Southwestern Medical Center (Dallas, TX), and backcrossed for at least 10 generations. Mice and rats were housed in separate colony rooms, which were maintained at 22°C and 60% relative humidity. For rat DRL experiments, water was available for a 20-min period following the daily behavioral session. Based on recommendations from the animal care and use committee, the mouse DRL assay was developed using food deprivation rather than water deprivation. […] All experiments were conducted during the light cycle and in compliance with the Guide for the Care and Use of Laboratory Animals under protocols approved by a local animal care and use committee.
(§4) The levers in these chambers were mounted on one wall with an adjacent food magazine next to the lever in the middle of the wall. A reinforced response caused a clicker apparatus to activate and the pellet feeder to deposit one 45-mg sucrose pellet (BioServ, Frenchtown, NJ) into the food magazine. The house light, which was mounted on the ceiling, was turned on when the session began, remained on throughout the entire session, and was turned off at the end of the session. Each experimental chamber was enclosed in a melamine sound-attenuating cubicle and equipped with a white noise generator to provide masking noise.
(§5) Each mouse was initially trained under a variable time 60-s operant schedule for 5 days, followed by fixed ratio-1 ratio schedule for 5 days. After the mice had acquired lever-pressing behavior, they were trained during daily DRL 6-s sessions for ~1 week, then mice progressed through weekly ascending DRL requirements (12, 18, 24, 30 s) before moving to DRL 36-s sessions. […] Experimental sessions lasted for 45 min and were conducted 5 days/week during light hours.
as §1, §2

C57Bl/6 mice = assay: DRL 36-s schedule of reinforcement in wild-type mice; type: in vivo, mouse; details: for Lever Presses Mean / Reinforcers Mean: WT mice DRL-36-s, raw data
From the text: as §4, §5, §1, §2

[6] = test system: mice lacking OX2 receptors; assay: DRL 36-s schedule of reinforcement in OX2 KO mice; type: in vivo, mouse; details: for Lever Presses Mean / Reinforcers Mean: OX2 KO mice DRL-36-s, raw data
From the text: as §3, §4, §5, §1, §2

[7] = 30 mg/kg PO, two hours post treatment, Ctotal × Fu
[8] = mice lacking OX1 receptors, DRL-36-s, 20 mg/kg

Compound: Cl.O=S(=O)(c1ccc(F)cc1)N(Cc1ncc[nH]1)c1ccccc1-c1ccccc1 [LSN2424100, N-((1H-imidazol-2-yl)methyl)-N-([1,1′-biphenyl]-2-yl)-4-fluorobenzenesulfonamide hydrochloride]
- Effect on restraint stress-induced increase in c-fos expression in prefrontal cortex ([1]; 30 mg/kg IP 30 min before 20 min restraint): attenuated; also recorded: blocked
- c-fos protein levels in prefrontal cortex without stress (home cage) vs vehicle ([1]; 30 mg/kg IP, no restraint stress): no effect
- Cu (unbound concentration) brain [2, 7]: 0.67 nM
- Cu (unbound concentration) plasma [2, 7]: 3.52 nM
- concentration at 2 h ([2]; brain, 30 mg/kg IP, two hours post treatment, read-out: Brain concentration): 77.2 ng/g
- concentration at 2 h ([2]; brain, 30 mg/kg PO, two hours post treatment, read-out: Brain concentration): 33.5 ng/g
- Cmax ([2]; plasma, 30 mg/kg IP): 1170 ng/mL
- Tmax ([2]; plasma, 30 mg/kg IP): 30 min
- AUC(0-t) ([2]; plasma, 30 mg/kg IP): 1300 ng·h/mL
- concentration at 2 h ([2]; plasma, 30 mg/kg IP, two hours post treatment, read-out: Plasma concentration): 149 ng/mL
- Cmax ([2]; plasma, 30 mg/kg PO): 196 ng/mL
- Tmax ([2]; plasma, 30 mg/kg PO): 30 min
- AUC(0-t) ([2]; plasma, 30 mg/kg PO): 269 ng·h/mL
- concentration at 2 h ([2]; plasma, 30 mg/kg PO, two hours post treatment, read-out: Plasma concentration): 45.8 ng/mL
- fraction unbound at 1 μM ([3]; brain, read-out: Fu (fraction unbound) brain): 0.0089
- fraction unbound at 1 μM ([3]; plasma, read-out: Fu (fraction unbound) plasma): 0.0341
- Direct effects on food or water intake [4]: no direct effects
- Lever Presses Mean (Sprague–Dawley rats; dose 3 mg/kg): 67.86
- Reinforcers Mean (Sprague–Dawley rats; dose 3 mg/kg): 10.71
- Lever Presses Mean (Sprague–Dawley rats; dose 10 mg/kg): 48.14
- Reinforcers Mean (Sprague–Dawley rats; dose 10 mg/kg): 12.14
- Lever Presses Mean (Sprague–Dawley rats; dose 30 mg/kg IP): 56.00
- Reinforcers Mean (Sprague–Dawley rats; dose 30 mg/kg IP): 15.43
- Total lever presses emitted (Sprague–Dawley rats; rats DRL-72-s, 10 mg/kg, normalized to control days): 60 % of control
- Lever presses made (Sprague–Dawley rats; rats DRL-72-s, 30 mg/kg IP): 70 % of control
- Reinforcers received (Sprague–Dawley rats; rats DRL-72-s, 30 mg/kg IP): 170 % of control
- Lever Presses Mean ([5]; dose 3 mg/kg): 164.38
- Reinforcers Mean ([5]; dose 3 mg/kg): 23.13
- Lever Presses Mean ([5]; dose 10 mg/kg): 174.75
- Reinforcers Mean ([5]; dose 10 mg/kg): 20.00
- Lever Presses Mean ([5]; dose 20 mg/kg): 105.25
- Reinforcers Mean ([5]; dose 20 mg/kg): 31.75
- Lever presses emitted [5, 8]: 50 % of control
- Reinforcers received [5, 8]: 200 % of control
- Lever presses emitted (C57Bl/6 mice; C57Bl/6 mice DRL-36-s, 10 mg/kg IP): 50 % of control
- Decrease in lever presses emitted, in words (C57Bl/6 mice; C57Bl/6 mice DRL-36-s, 20 mg/kg): did not reach statistical significance
- Reinforcers received (maximum increase) (C57Bl/6 mice; C57Bl/6 mice DRL-36-s, doses 3–20 mg/kg IP, did not reach statistical significance): up to 225 % of control
- Lever Presses Mean (C57Bl/6 mice; dose 3 mg/kg): 153.38
- Reinforcers Mean (C57Bl/6 mice; dose 3 mg/kg): 15.00
- Lever Presses Mean (C57Bl/6 mice; dose 10 mg/kg): 83.88
- Reinforcers Mean (C57Bl/6 mice; dose 10 mg/kg): 18.75
- Lever Presses Mean (C57Bl/6 mice; dose 20 mg/kg): 105.43
- Reinforcers Mean (C57Bl/6 mice; dose 20 mg/kg): 28.00
- Lever Presses Mean ([6]; dose 10 mg/kg): 171.75
- Reinforcers Mean ([6]; dose 10 mg/kg): 18.88
- Lever Presses Mean ([6]; dose 20 mg/kg): 160.00
- Reinforcers Mean ([6]; dose 20 mg/kg): 23.38
- Lever Presses Mean ([6]; dose 40 mg/kg): 158.25
- Reinforcers Mean ([6]; dose 40 mg/kg): 26.25
- Change in reinforcers received or lever presses emitted, in words ([6]; mice lacking OX2 receptors, doses up to 40 mg/kg): no significant change
